Measured values: patent US20240190824A1, “INHIBITORS OF TREK (TWIK RELATED K+ CHANNELS) CHANNEL FUNCTION” (ONO PHARMACEUTICAL CO., LTD., priority 2019, published 2024)

Biological target: human TREK-1 (Homo sapiens (Human), UniProt O95069)
Experiment: TREK-1 Thallium (Tl+) flux assay
Type: cell-based
Conditions: CHO-K1 cells stably expressing human TREK-1

Chain of human TREK-1 (O95069 whole entry): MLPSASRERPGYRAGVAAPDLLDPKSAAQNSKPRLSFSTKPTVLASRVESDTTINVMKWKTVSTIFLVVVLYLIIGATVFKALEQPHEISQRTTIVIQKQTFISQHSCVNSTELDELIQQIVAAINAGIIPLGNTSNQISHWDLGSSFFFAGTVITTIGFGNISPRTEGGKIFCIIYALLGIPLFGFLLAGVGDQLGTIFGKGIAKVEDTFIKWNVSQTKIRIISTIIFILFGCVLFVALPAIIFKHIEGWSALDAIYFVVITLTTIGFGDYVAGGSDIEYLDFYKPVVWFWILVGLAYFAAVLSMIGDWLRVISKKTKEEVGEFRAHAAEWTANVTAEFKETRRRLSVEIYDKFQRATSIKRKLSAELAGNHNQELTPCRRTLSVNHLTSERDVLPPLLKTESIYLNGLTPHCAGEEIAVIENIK

SMILES | IC50 [nM]
C[C@H]1C[C@@H]1C(=O)Nc1ccc(Cl)c(C(=O)Nc2ncc(C#Cc3ccccc3)cc2F)c1 [Compound 2, 2-chloro-N-[3-fluoro-5-(2-phenylethynyl)-2-pyridyl]-5-[[(1S,2S)-2-methylcyclopropanecarbonyl]amino]benzamide] | 90
C[C@H]1C[C@@H]1C(=O)Nc1ccc(Cl)c(C(=O)Nc2ncc(C#Cc3cccc(F)c3)cc2F)c1 [Compound 4, 2-chloro-N-[3-fluoro-5-[2-(3-fluorophenyl)ethynyl]-2-pyridyl]-5-[[(1S,2S)-2-methylcyclopropanecarbonyl]amino]benzamide] | 130
O=C(Nc1ncc(C#Cc2ccccc2)cc1F)c1cc(NC(=O)C2(F)CC2)ccc1Cl [Compound 6, 2-chloro-5-[(1-fluorocyclopropanecarbonyl)amino]-N-[3-fluoro-5-(2-phenylethynyl)-2-pyridyl]benzamide] | 170
O=C(Nc1ncc(C#Cc2ccc(F)cc2)cc1F)c1cc(NC(=O)C2CC2)ccc1Cl [Compound 7, 2-chloro-5-(cyclopropanecarbonylamino)-N-[3-fluoro-5-[2-(4-fluorophenyl)ethynyl]-2-pyridyl]benzamide] | 150
O=C(Nc1ncc(C#Cc2ccccc2)cc1F)c1cc(NC(=O)C2COCCO2)ccc1Cl (stereo not drawn) [Compound 10, N-[4-chloro-3-[[3-fluoro-5-(2-phenylethynyl)-2-pyridyl]carbamoyl]phenyl]-1,4-dioxane-2-carboxamide] | 200
Cc1cc(C#Cc2ccc(F)cc2)cnc1NC(=O)c1cc(NC(=O)C2CCO2)ccc1Cl (stereo not drawn) [Compound 12, N-[4-chloro-3-[[5-[2-(4-fluorophenyl)ethynyl]-3-methyl-2-pyridyl]carbamoyl]phenyl]oxetane-2-carboxamide] | 310
Cc1cc(C#Cc2cccc(F)c2)cnc1NC(=O)c1cc(NC(=O)C2COCCO2)ccc1Cl (stereo not drawn) [Compound 13, N-[4-chloro-3-[[5-[2-(3-fluorophenyl)ethynyl]-3-methyl-2-pyridyl]carbamoyl]phenyl]-1,4-dioxane-2-carboxamide] | 280
Cc1cc(C#Cc2ccc(F)cc2)cnc1NC(=O)c1cc(NC(=O)C2COCCO2)ccc1Cl (stereo not drawn) [Compound 14, N-[4-chloro-3-[[5-[2-(4-fluorophenyl)ethynyl]-3-methyl-2-pyridyl]carbamoyl]phenyl]-1,4-dioxane-2-carboxamide] | 230
Cc1cc(C#Cc2ccccn2)cnc1NC(=O)c1cc(NC(=O)OC(C)(C)C)ccc1Cl [Compound 15, tert-butyl N-[4-chloro-3-[[3-methyl-5-[2-(2-pyridyl)ethynyl]-2-pyridyl]carbamoyl]phenyl]carbamate] | 370
Cc1cc(C#Cc2cccc(F)c2)cnc1NC(=O)c1cc(C(=O)N2CC(C)(O)C2)ccc1Cl [Compound 18, 2-chloro-N-[5-[2-(3-fluorophenyl)ethynyl]-3-methyl-2-pyridyl]-5-(3-hydroxy-3-methyl-azetidine-1-carbonyl)benzamide] | 240
Cc1cc(C#Cc2ccccc2)cnc1NC(=O)c1cc(-c2noc(C3CCOC3)n2)ccc1Cl (stereo not drawn) [Compound 19, 2-chloro-N-[3-methyl-5-(2-phenylethynyl)-2-pyridyl]-5-(5-tetrahydrofuran-3-yl-1,2,4-oxadiazol-3-yl)benzamide] | 50
Cc1cc(OCc2ccccc2)ccc1NC(=O)c1cc(NC(=O)OC(C)(C)C)ccc1Cl [Compound 25, tert-butyl (3-((4-(benzyloxy)-2-methylphenyl)carbamoyl)-4-chlorophenyl)carbamate] | 460
Cc1cc(COc2ccccc2)ccc1NC(=O)c1cc(NC(=O)OC(C)(C)C)ccc1Cl [Compound 26, tert-butyl (4-chloro-3-((2-methyl-4-(phenoxymethyl)phenyl)carbamoyl)phenyl)carbamate] | 670
Cc1cc(C#Cc2ccccc2)cnc1NC(=O)c1c(Cl)ccc(NC(=O)OC(C)(C)C)c1F [Compound 34, tert-butyl N-[4-chloro-2-fluoro-3-[[3-methyl-5-(2-phenylethynyl)-2-pyridyl]carbamoyl]phenyl]carbamate] | 360
Cc1cc(C#Cc2ccccc2)cnc1NC(=O)c1cc(NC(=O)OC(C)(C)C)cc(F)c1Cl [Compound 35, tert-butyl N-[4-chloro-3-fluoro-5-[[3-methyl-5-(2-phenylethynyl)-2-pyridyl]carbamoyl]phenyl]carbamate] | 400
CC(C)(C)OC(=O)Nc1ccc(Cl)c(C(=O)Nc2ncc(C#Cc3ccccc3)cc2F)n1 [Compound 38, tert-butyl N-[5-chloro-6-[[3-fluoro-5-(2-phenylethynyl)-2-pyridyl]carbamoyl]-2-pyridyl]carbamate] | 440
Cc1cc(C#Cc2cnccn2)cnc1NC(=O)c1cc(NC(=O)OC(C)(C)C)ccc1Cl [Compound 39, tert-butyl N-[4-chloro-3-[[3-methyl-5-(2-pyrazin-2-ylethynyl)-2-pyridyl]carbamoyl]phenyl]carbamate] | 470
CC(C)(C)OC(=O)Nc1ccc(Cl)c(C(=O)Nc2c(F)cc(C#Cc3ccccc3)nc2F)c1 [Compound 40, tert-butyl N-[4-chloro-3-[[2,4-difluoro-6-(2-phenylethynyl)-3-pyridyl]carbamoyl]phenyl]carbamate] | 470
Cc1cc(C#Cc2cccnc2)cnc1NC(=O)c1cc(NC(=O)OC(C)(C)C)ccc1Cl [Compound 41, tert-butyl N-[4-chloro-3-[[3-methyl-5-[2-(3-pyridyl)ethynyl]-2-pyridyl]carbamoyl]phenyl]carbamate] | 530
Cc1cc(C#Cc2ccccc2F)cnc1NC(=O)c1cc(NC(=O)OC(C)(C)C)ccc1Cl [Compound 42, tert-butyl N-[4-chloro-3-[[5-[2-(2-fluorophenyl)ethynyl]-3-methyl-2-pyridyl]carbamoyl]phenyl]carbamate] | 540
Cc1cc(C#Cc2ccccc2)cnc1NC(=O)c1nc(NC(=O)OC(C)(C)C)ccc1Cl [Compound 43, tert-butyl N-[5-chloro-6-[[3-methyl-5-(2-phenylethynyl)-2-pyridyl]carbamoyl]-2-pyridyl]carbamate] | 550

More lines, now with the values ahead:

IC50 [nM] | SMILES
70 | CC1CC1C(=O)Nc1ccc(Cl)c(C(=O)Nc2ncc(C#Cc3ccccc3)cc2F)c1 (stereo not drawn) [Compound 3, 2-chloro-N-[3-fluoro-5-(2-phenylethynyl)-2-pyridyl]-5-[(2-methylcyclopropanecarbonyl)amino]benzamide]
180 | Cc1cc(C#Cc2ccccc2)cnc1NC(=O)c1cc(NC(=O)C2CC2)ccc1Cl [Compound 9, 2-chloro-5-(cyclopropanecarbonylamino)-N-[3-methyl-5-(2-phenylethynyl)-2-pyridyl]benzamide]
320 | Cc1cc(C#Cc2ccccc2)cnc1NC(=O)c1cc(C(=O)N2CC(F)(F)C2)ccc1Cl [Compound 16, 2-chloro-5-(3,3-difluoroazetidine-1-carbonyl)-N-[3-methyl-5-(2-phenylethynyl)-2-pyridyl]benzamide]
180 | Cc1cc(C#Cc2ccccc2)cnc1NC(=O)c1cc(C(=O)NC(C)(C)CO)ccc1Cl [Compound 17, 4-chloro-N1-(2-hydroxy-1,1-dimethyl-ethyl)-N3-[3-methyl-5-(2-phenylethynyl)-2-pyridyl]benzene-1,3-dicarboxamide]
90 | Cc1cc(C#Cc2ccccc2)cnc1NC(=O)c1cc(OCC2CCOCC2)ccc1Cl [Compound 20, 2-chloro-N-[3-methyl-5-(2-phenylethynyl)-2-pyridyl]-5-(tetrahydropyran-4-ylmethoxy)benzamide]
110 | Cc1cc(C#Cc2ccccc2)cnc1NC(=O)c1cc(OC[C@H]2COCCO2)ccc1Cl [Compound 21, 2-chloro-5-[[(2R)-1,4-dioxan-2-yl]methoxy]-N-[3-methyl-5-(2-phenylethynyl)-2-pyridyl]benzamide]
130 | Cc1cc(C#Cc2ccccc2)cnc1NC(=O)c1cc(OCC2COCCO2)ccc1Cl (stereo not drawn) [Compound 22, 2-chloro-5-(1,4-dioxan-2-ylmethoxy)-N-[3-methyl-5-(2-phenylethynyl)-2-pyridyl]benzamide]
210 | Cc1cc(C#Cc2ccccc2)cnc1NC(=O)c1cc(OC[C@@H]2COCCO2)ccc1Cl [Compound 23, 2-chloro-5-[[(2S)-1,4-dioxan-2-yl]methoxy]-N-[3-methyl-5-(2-phenylethynyl)-2-pyridyl]benzamide]
230 | COCCOc1ccc(Cl)c(C(=O)Nc2ncc(C#Cc3ccccc3)cc2C)c1 [Compound 24, 2-chloro-5-(2-methoxyethoxy)-N-[3-methyl-5-(2-phenylethynyl)-2-pyridyl]benzamide]
100 | Cc1cc(C#Cc2ccccc2)cnc1NC(=O)c1cc(NC(=O)[C@H]2C[C@@H]2C)ccc1Cl [Compound 27, 2-chloro-5-[[(1S,2S)-2-methylcyclopropanecarbonyl]amino]-N-[3-methyl-5-(2-phenylethynyl)-2-pyridyl]benzamide]
140 | Cc1cc(C#Cc2ccccc2)cnc1NC(=O)c1cc(NC(=O)OC(C)(C)C)ccc1Cl [Compound 28, tert-butyl N-[4-chloro-3-[[3-methyl-5-(2-phenylethynyl)-2-pyridyl]carbamoyl]phenyl]carbamate]
260 | Cc1cc(C#Cc2ccccc2)cnc1NC(=O)c1cc(NC(=O)C2COCCO2)ccc1Cl (stereo not drawn) [Compound 31, N-[4-chloro-3-[[3-methyl-5-(2-phenylethynyl)-2-pyridyl]carbamoyl]phenyl]-1,4-dioxane-2-carboxamide]
280 | Cc1cc(C#Cc2ccccc2)cnc1NC(=O)c1cc(NC(=O)C2CC(C)(O)C2)ccc1Cl (stereo not drawn) [Compound 32, 2-chloro-5-[(3-hydroxy-3-methyl-cyclobutanecarbonyl)amino]-N-[3-methyl-5-(2-phenylethynyl)-2-pyridyl]benzamide]
290 | Cc1cc(C#Cc2ccccc2)cnc1NC(=O)c1nc(NC(=O)C2CC2C)ccc1Cl (stereo not drawn) [Compound 33, 3-chloro-6-[(2-methylcyclopropanecarbonyl)amino]-N-[3-methyl-5-(2-phenylethynyl)-2-pyridyl]pyridine-2-carboxamide]
420 | Cc1cc(C#Cc2ccccc2)cnc1NC(=O)c1cc(NC(=O)[C@@H]2C[C@H]2C)ccc1Cl [Compound 36, 2-chloro-5-[[(1R,2R)-2-methylcyclopropanecarbonyl]amino]-N-[3-methyl-5-(2-phenylethynyl)-2-pyridyl]benzamide]
